# Results: US9133168B2, “Pyrimidine derivatives, preparation thereof, and pharmaceutical use thereof as akt(pkb) phosphorylation inhibitors” (SANOFI, priority 2010, dated 2015)
# pIC50: −log10 of the molar value.
# Test system: AKT protein phosphorylated on serine 473 (P-AKT-S473) in PC3 human prostate carcinoma cells
# Assay: pAKT expression in PC3 human prostate carcinoma cells, MSD Multi-spot Biomarker detection (Test A)
# Assay type: cell-based
# Details: Homo sapiens, PC-3, PC3 cells, 1 to 2 h incubation, P-AKT-S473, absolute IC50, mean of two independent experiments
# Procedure, shortened: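 Lysate pAKT-S473 measured by electrochemiluminescent sandwich immunoassay; inhibition versus cell-free background and DMSO-only wells, IC50 averaged over two experiments.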
row,Compound,pIC50
1,"C[C@@H]1Cc2ccccc2N1C(=O)Cc1nc(N2CCOCC2)cc(=S)[nH]1 [Example 3e, 1-((R)-2-methyl-2,3-dihydroindol-1-yl)-2-(4-morpholin-4-yl-6-thioxo-1,6-dihydropyrimidin-2-yl)ethanone]",8.10
2,"O=C(Cc1nc(N2CCOCC2)cc(=O)[nH]1)N1CCc2c(OC(F)F)cccc21 [Example 9d, 2-{2-[4-(difluoromethoxy)-2,3-dihydro-1H-indol-1-yl]-2-oxoethyl}-6-(morpholin-4-yl)pyrimidin-4(3H)-one]",7.36
3,"C[C@@H]1Cc2ccccc2N1C(=O)Cc1nc(N2CCOCC2)c(F)c(=O)[nH]1 [Example 4a, 5-fluoro-2-{2-[(2R)-2-methyl-2,3-dihydro-1H-indol-1-yl]-2-oxoethyl}-6-(morpholin-4-yl)pyrimidin-4(3H)-one]",6.30
4,"Cn1c(CC(=O)N2CCc3c2cccc3C(F)(F)F)nc(N2CCOCC2)cc1=O [Example 4d, 3-methyl-6-(morpholin-4-yl)-2-{2-oxo-2-[4-(trifluoromethyl)-2,3-dihydro-1H-indol-1-yl]ethyl}pyrimidin-4(3H)-one]",7.20
5,"O=C(Cc1nc(N2CCOCC2)cc(=O)[nH]1)N1CCc2c(-c3ccccc3)cccc21 [Example 2d, 6-(morpholin-4-yl)-2-[2-oxo-2-(4-phenyl-2,3-dihydro-1H-indol-1-yl)ethyl]pyrimidin-4(3H)-one]",7.62
6,"O=C(Cc1nc(N2CCOCC2)cc(=O)n1C1CC1)N1CCc2c(Cl)cccc21 [Example 15d, 2-[2-(4-chloro-2,3-dihydro-1H-indol-1-yl)-2-oxoethyl]-3-cyclopropyl-6-(morpholin-4-yl)pyrimidin-4(3H)-one]",7.43
7,"CN1CCC2(CC1)CN(C(=O)Cc1nc(N3CCOCC3)cc(=O)[nH]1)c1ccccc12 [Example 11d, 2-[2-(1′-methylspiro[indole-3,4′-piperidin]-1(2H)-yl)-2-oxoethyl]-6-(morpholin-4-yl)pyrimidin-4(3H)-one]",7.59
8,"CC1(C)CN(C(=O)Cc2nc(N3CCOCC3)cc(=O)[nH]2)c2cccc(F)c21 [Example 8c, 2-[2-(4-fluoro-3,3-dimethyl-2,3-dihydro-1H-indol-1-yl)-2-oxoethyl]-6-(morpholin-4-yl)pyrimidin-4(3H)-one]",7.28

# Further lines, results first:
row,pIC50,Compound
1,7.72,"CC1Cc2c(ccc(F)c2F)N1C(=O)Cc1nc(N2CCOCC2)cc(=O)n1C (single isomer, unassigned; (+)) [Example 19c, (+)-2-{2-[4,5-difluoro-2-methyl-2,3-dihydro-1H-indol-1-yl]-2-oxoethyl}-3-methyl-6-(morpholin-4-yl)pyrimidin-4(3H)-one]"
2,7.28,"CC1Cc2c(F)cccc2N1C(=O)Cc1nc(N2CCOCC2)cc(=O)n1C (single isomer, unassigned; (-)) [Example 29c, (−)-2-{2-[4-fluoro-2-methyl-2,3-dihydro-1H-indol-1-yl]-2-oxoethyl}-3-methyl-6-(morpholin-4-yl)pyrimidin-4(3H)-one]"
3,6.81,"C[C@H]1Cc2ccccc2N1C(=O)Cc1nc(N2CCOC(CO)C2)cc(=O)[nH]1 (single isomer, unassigned; (+)) [Example 31b]"
4,6.25,"O=C(Cc1nc(N2CCOCC2)c(F)c(=O)[nH]1)N1c2ccccc2C[C@H]1CO [Example 39a, 5-Fluoro-2-[2-((−)-2-hydroxymethyl-2,3-dihydroindol-1-yl)-2-oxoethyl]-6-morpholin-4-yl-3H-pyrimidin-4-one]"
5,7.62,"N#Cn1c(CC(=O)N2CCc3ccccc32)nc(N2CCOCC2)cc1=O [Example 42d, 2-[2-(2,3-dihydro-1H-indol-1-yl)-2-oxoethyl]-4-(morpholin-4-yl)-6-oxopyrimidine-1(6H)-carbonitrile]"
6,6.81,"O=C(Cc1nc(N2CCOCC2)cc(=O)[nH]1)N1CC2(CCOCC2)c2ccccc21 [Example 21d, 6-(morpholin-4-yl)-2-[2-oxo-2-(2′,3′,5′,6′-tetrahydrospiro[indole-3,4′-pyran]-1(2H)-yl)ethyl]pyrimidin-4(3H)-one]"
7,7.29,"O=C(Cc1nc(N2CCOCC2)cc(=O)n1-c1ccccc1)N1CCc2ccccc21 [Example 39d, 2-[2-(2,3-Dihydroindol-1-yl)-2-oxoethyl]-6-morpholin-4-yl-3-phenyl-3H-pyrimidin-4-one]"
8,6.28,"CN1CCN(Cc2cccc3c2CCN3C(=O)Cc2nc(N3CCOCC3)cc(=O)n2C)CC1 [Example 20d, 3-methyl-2-(2-{4[(4-methylpiperazin-1-yl)methyl]-2,3-dihydro-1H-indol-1-yl}-2-oxoethyl)-6-(morpholin-4-yl)pyrimidin-4(3H)-one]"
9,6.85,"CC(F)(C(=O)N1CCc2c(F)cccc21)c1nc(N2CCOCC2)cc(=O)[nH]1 (single isomer, unassigned; (-)) [Example 44c, (−)-2-[2-fluoro-1-(4-fluoro-2,3-dihydro-1H-indol-1-yl)-1-oxopropan-2-yl]-6-(morpholin-4-yl)pyrimidin-4(3H)-one]"
10,8.40,"CC(C)C1Cc2ccccc2N1C(=O)Cc1nc(N2CCOCC2)cc(=O)[nH]1 (single isomer, unassigned; (-)) [Example 39c, (−)-2-[2-(2-isopropyl-2,3-dihydroindol-1-yl)-2-oxoethyl]-6-morpholin-4-yl-3H-pyrimidin-4-one]"

# Same assay, conditions: PC3 cells, 1 to 2 h incubation, P-AKT-S473, absolute IC50, mean of two independent experiments
row,Compound,pIC50
1,"CC1Cc2c(Br)cccc2N1C(=O)Cc1nc(N2CCOCC2)c(F)c(=O)[nH]1 (single isomer, unassigned; (-)) [Example 17a, (−)-2-{2-[4-bromo-2-methyl-2,3-dihydro-1H-indol-1-yl]-2-oxoethyl}-5-fluoro-6-(morpholin-4-yl)pyrimidin-4(3H)-one]",7.35
2,"CC1Cc2cc(F)ccc2N1C(=O)Cc1nc(N2CCOCC2)c(F)c(=O)[nH]1 (stereo not drawn) [Example 6a, 5-fluoro-2-[2-((+)-5-fluoro-2-methyl-2,3-dihydroindol-1-yl)-2-oxoethyl]-6-morpholin-4-yl-3H-pyrimidin-4-one]",8.00
3,"CC1Cc2c(F)cccc2N1C(=O)Cc1nc(N2CCOCC2)c(F)c(=O)[nH]1 (stereo not drawn) [Example 10a, 5-fluoro-2-[2-((+)-2-methyl-4-fluoro-2,3-dihydroindol-1-yl)-2-oxoethyl]-6-morpholin-4-yl-3H-pyrimidin-4-one]",6.94
4,"CC1Cc2c(O)cccc2N1C(=O)Cc1nc(N2CCOCC2)cc(=O)[nH]1 (single isomer, unassigned; (+)) [Example 9c, (+)-2-{2-[4-hydroxy-2-methyl-2,3-dihydro-1H-indol-1-yl]-2-oxoethyl}-6-(morpholin-4-yl)pyrimidin-4(3H)-one]",6.94
5,"CC1CN(c2cc(=O)[nH]c(CC(=O)Nc3ccc(F)cc3)n2)CCO1 (single isomer, unassigned; (+)) [Example 2b, (+)-N-(4-fluorophenyl)-2-[4-(2-methylmorpholin-4-yl)-6-oxo-1,6-dihydropyrimidin-2-yl]acetamide]",8.22
6,"O=C(Cc1nc(N2CCOC(CF)C2)cc(=O)[nH]1)Nc1ccc(F)cc1 (single isomer, unassigned; (+)) [Example 4b, (+)-N-(4-fluorophenyl)-2-[4-(2-fluoromethylmorpholin-4-yl)-6-oxo-1,6-dihydropyrimidin-2-yl]acetamide]",6.93
7,"CC1Cc2cc(F)ccc2N1C(=O)Cc1nc(N2CCOCC2)cc(=O)[nH]1 (single isomer, unassigned; (-)) [Example 14c, (−)-2-{2-[5-fluoro-2-methyl-2,3-dihydro-1H-indol-1-yl]-2-oxoethyl}-6-(morpholin-4-yl)pyrimidin-4(3H)-one]",8.70
8,"CC1Cc2cc(F)ccc2N1C(=O)Cc1nc(N2CCOCC2)c(F)c(=O)n1C (stereo not drawn) [Example 15a, 5-fluoro-2-[2-((+)-5-fluoro-2-methyl-2,3-dihydroindol-1-yl)-2-oxoethyl]-3-methyl-6-morpholin-4-yl-3H-pyrimidin-4-one]",7.19

# Second part, the compound after the results:
row,pIC50,Compound
1,6.51,"CC1Cc2c(ccc(F)c2F)N1C(=O)Cc1nc(N2CCOCC2)c(F)c(=O)n1C (stereo not drawn) [Example 24a, 5-fluoro-2-[2-((−)-4,5-difluoro-2-methyl-2,3-dihydroindol-1-yl)-2-oxoethyl]-3-methyl-6-morpholin-4-yl-3H-pyrimidin-4-one]"
2,8.30,"CC1Cc2c(cccc2C(F)(F)F)N1C(=O)Cc1nc(N2CCOCC2)cc(=O)[nH]1 (single isomer, unassigned; (+)) [Example 36d, (+)-2-{2-[2-methyl-4-(trifluoromethyl)-2,3-dihydro-1H-indol-1-yl]-2-oxoethyl}-6-(morpholin-4-yl)pyrimidin-4(3H)-one]"
3,8.70,"O=C(Cc1nc(N2CCOCC2)cc(=O)[nH]1)N1c2ccccc2CC1c1ccc(F)cc1 (single isomer, unassigned; (-)) [Example 28d, (−)-2-{2-[2-(4-fluorophenyl)-2,3-dihydro-1H-indol-1-yl]-2-oxoethyl}-6-(morpholin-4-yl)pyrimidin-4(3H)-one]"
4,6.78,"CC1Cc2c(OC(F)F)cccc2N1C(=O)Cc1nc(N2CCOCC2)cc(=O)n1C (single isomer, unassigned; (+)) [Example 31d, (+)-2-{2-[4-(difluoromethoxy)-2-methyl-2,3-dihydro-1H-indol-1-yl]-2-oxoethyl}-3-methyl-6-(morpholin-4-yl)pyrimidin-4(3H)-one]"
5,8.30,"C[C@@H]1Cc2ccccc2N1C(=O)Cc1nc(N2CCOCC2)cc(=O)[nH]1 [Example 20b, (−)-2-[2-(2-methyl-2,3-dihydroindol-1-yl)-2-oxoethyl]-6-(2,2,6,6-morpholin-D4)-4-yl-3H-pyrimidin-4-one]"
6,7.14,"CC1Cc2c(F)cccc2N1C(=O)Cc1nc(N2CCOCC2)cc(=O)n1C (single isomer, unassigned; (+)) [Example 30c, (+)-2-{2-[4-fluoro-2-methyl-2,3-dihydro-1H-indol-1-yl]-2-oxoethyl}-3-methyl-6-(morpholin-4-yl)pyrimidin-4(3H)-one]"
7,7.01,"CC1Cc2c(F)cccc2N1C(=O)Cc1nc(N2CCOCC2)cc(=O)[nH]1 (single isomer, unassigned; (+)) [Example 28c, (+)-2-{2-[4-fluoro-2-methyl-2,3-dihydro-1H-indol-1-yl]-2-oxoethyl}-6-(morpholin-4-yl)pyrimidin-4(3H)-one]"
